# pIC50: −log10 of the molar value.
# Legend:
# [1] = system: MRC-5 non-tumorigenic lung fibroblast cells; assay: MTT cytotoxicity assay, MRC-5; details: read-out: cytotoxicity IC50; MRC-5, lung normal; MTT, 48 h treatment; spread in brackets
# Source text: (§1) (a) Dulbecco's Modified Eagle Medium (DMEM), Dulbecco's phosphate buffered saline (DPBS), fetal bovine serum (FBS) and 0.25% trypsin/EDTA solutions were purchased from Cellgro (Manassas, Va.). Penicillin-streptomycin solutions were purchased from Mediatech (Manassas, Va.). (b) HeLa (CCL-2TM) cells, A549, A2870, A2870/CP70, MCF-7, PC-3, and MRC-5 cells were purchased from American Type Culture Collection (ATCC, Manassas, Va., USA). (c) HCT116 cells were kindly donated by Laura Trudel (MIT). HeLa, A549, MCF-7, and MRC-5 cells were cultured using DMEM supplemented with 10% FBS and 1% penicillin-streptomycin. A2870, A2870/CP70, and PC-3 cells were cultured in RPMI supplemented with 10% FBS and 1% penicillin-streptomycin. HCT116 cells were cultured in McCoy's supplemented with 10% FBS and 1% penicillin-streptomycin. All cell-culture experiments were performed in the aforementioned media in an incubator operating at 37° C. and in the presence of a humidified atmosphere containing 5.0% CO2. Cells were harvested using a 0.25% trypsin/EDTA solution.
# The cytotoxicity of the compounds was assessed by means of the MTT assay (MTT=3-(4,5-dimethyl-2-thiazolyl)-2,5-diphenyl-2H-tetrazolium bromide). Typically, on day one, ˜1×10^3 cells were seeded into 96-well plates in 100 μL media per well. The last row of the plate was left empty as a control for background absorption. The cells were allowed to grow for 24 h in the incubator at 37° C. On day two, a series of drug dilutions in growth media were prepared immediately prior to cell treatment. The media in the wells of the 96 plates were replaced with 100 μL of growth media containing appropriate drug concentrations. The cells were treated for 48 h at 37° C. in the incubator. On day four, a stock solution of MTT (5 mg/mL in PBS buffer) was diluted with media so that, when 100 μL of the media was added to each well, 10 μL of MTT stock was applied. The cells were incubated for 2 h and then all the media was replaced with 100 μL of DMSO to dissolve the purple MTT-formazan crystals. The optical density for each well at 550 nm was measured with a microplate reader.
# [2] = system: all cell lines; assay: MTT cytotoxicity assay, across the cell lines; assay type: cell-based; details: non-tumorigenic lung fibroblast cells (MRC-5) vs ovarian carcinoma cells (A2780)
# Source text: as §1
# The cytotoxicity of the compounds was assessed by means of the MTT assay (MTT=3-(4,5-dimethyl-2-thiazolyl)-2,5-diphenyl-2H-tetrazolium bromide). Typically, on day one, ˜1×10^3 cells were seeded into 96-well plates in 100 μL media per well. […] The optical density for each well at 550 nm was measured with a microplate reader.
# [3] = target: T1, Bcl-xL-Bax interactions (Homo sapiens, UniProt Q07817); assay: Co-immunoprecipitation of Bcl-xL, probed for Bax; assay type: cell-based; details: A549 cells, respective IC50 values, 48 h
# T1 construct: endogenous in cells; host or cells: A549
# Experimental: α-TOS is known to disrupt Bcl-xL-Bax interactions, activate Bax, and thus mediate mitochondrial centered apoptotic cell death. Co-immunoprecipitation studies were carried out to determine whether the Pt(IV)-α-TOS conjugates could behave in a similar manner. […] Additional immunoblotting studies were carried to determine the effect of Pt(IV)(α-TOS)(OEt) treatment on transcription. […] Overall Pt(IV)(α-TOS)(OEt) was able to (1) downregulate Bcl-xL expression and (2) inhibit the interaction of Bcl-xL with Bax, a prerequisite for mitochondrial dysfunction. The former is inherent to cisplatin but not α-TOS, and the latter was inherent to α-TOS but not cisplatin.
# A549 cells (5×10^5 cells) were incubated with test compound for 48 h at 37° C. […] The resultant cell lysate was treated with protein A-agarose bead slurry (50 μL) and centrifuged to remove proteins that bind non-specifically. Anti Bcl-XL antibody (Cell Signalling Technology) was added to the lysate and incubated for 2 h at room temperature. Protein A-agarose bead slurry (50 μL) was added and the mixture was incubated at 4° C. overnight. Centrifugation allowed separation of the immunocomplex, which was washed with cold RIPA buffer (3×500 μL). The immunocomplex was then suspended in SDS-PAGE loading buffer (50 μL) and incubated at 95° C. for 10 min. The solution containing the immunocomplex was isolated by centrifugation and then analysed for Bax content using the immunoblotting analysis protocol described above.
# [4] = system: A549 cells; assay: JC-1 mitochondrial membrane potential assay; assay type: cell-based
# Experimental: To investigate the effect of Pt(IV)(α-TOS)(OEt) on mitochondria, changes in the mitochondrial membrane potential were assessed by the JC-1 assay. JC-1 (5,5′,6,6′-tetrachloro-1,1′3,3′-tetraethylbenzimidazolylcarbocyanine iodide) is a positively charged lipophilic dye, which accumulates in the mitochondria of healthy cells as red-emitting aggregates. When the mitochondrial membrane is compromised, JC-1 de-aggregates into monomeric forms that emit green fluorescence. […] These findings were confirmed using flow cytometry. A large population of untreated and Pt(IV)(α-TOS)(OEt)-treated A549 cells were examined.
# In order to monitor the cell cycle, flow cytometry studies were carried out. A549 cells were incubated with and without the test compounds for 24 and 48 h at 37° C. Cells were harvested from adherent cultures by trypsinization and combined with all detached cells from the incubation medium to assess total cell viability. Following centrifugation at 1000 rpm for 5 min, cells were washed with PBS and then fixed with 70% ethanol in PBS. Fixed cells were collected by centrifugation at 2500 rpm for 3 min, washed with PBS and centrifuged as before. Cellular pellets were re-suspended in 50 μg/mL propidium iodide (Sigma) in PBS for nucleic acids staining and treated with 100 μg/mL RNaseA (Sigma). DNA content was measured on a FACSCalibur-HTS flow cytometer (BD Biosciences) using laser excitation at 488 nm and 20,000 events per sample were acquired. Cell cycle profiles were analysed using the ModFit software. For the apoptosis experiments, the Annexin V-FITC Early Apoptosis Detection Kit (Cell Signaling Technology) was used. […] The samples were kept on ice prior to being read on the FACSCalibur-HTS flow cytometer (BD Biosciences) (20,000 events per sample were acquired). Cell populations were analysed using the FlowJo software (Tree Star). […] The cells were incubated for 30 min, harvested, and analysed by using the FACSCalibur-HTS flow cytometer (BD Biosciences) (20,000 events per sample were acquired). […] Cell populations were analysed using the FlowJo software (Tree Star).
# T1 sequence (Q07817 whole entry): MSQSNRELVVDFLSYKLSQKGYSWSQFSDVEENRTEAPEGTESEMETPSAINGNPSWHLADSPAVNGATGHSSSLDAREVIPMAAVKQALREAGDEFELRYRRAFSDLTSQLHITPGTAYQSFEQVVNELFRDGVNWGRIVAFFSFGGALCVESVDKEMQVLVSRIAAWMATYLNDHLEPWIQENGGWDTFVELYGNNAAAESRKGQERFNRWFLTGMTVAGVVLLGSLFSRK
smiles,measurement,setting,value
CC[O][Pt]([NH2])([NH2])([Cl])([Cl])[O]C(=O)CCC(=O)Oc1c(C)c(C)c2c(c1C)CCC(C)(CCCC(C)CCCC(C)CCCC(C)C)O2 (stereo not drawn) [Pt(IV)(α-TOS)(OEt)],pIC50,[1],5.28
same,reduction in toxicity for MRC-5 compared to A2780,[2],265 fold
same,Bcl-xL-Bax interaction (Bax associated to the Bcl-xL immunoprecipitate),[3],reduced Bcl-xL-Bax interactions
same,"cells expressing green JC-1 fluorescence (FL1-H), flow cytometry","[4]; 25 μM, 4 h",a marked increase in cells expressing green fluorescence
same,"JC-1 fluorescence (mitochondrial membrane disruption), microscopy","[4]; cisplatin or Pt(IV)(α-TOS)(OEt) at 20 μM, 4 hours",A similar phenomenon was observed

# From patent publication US9133225B2, “Dual targeting anticancer agents” (priority 2013, dated 2015)
